“And” between values parts separate entries of the source, which are not always exact repeats. Identical values can stand only once. Counter-ions that a name gives are not always drawn.
Test system: dopamine release in the rat prefrontal cortex
Assay: Microdialysis: dopamine release in prefrontal cortex after I.P. administration
Format: in vivo
Details: for DOPAMINE (% of respective basal), individual animal: 0.1 mg/kg I.P., c2-c9 = R#13,14,20,19,25,26,31,32; for DOPAMINE (% of respective basal), individual animal / Dopamine release, individual animals: hydrochloride; for Dopamine release, MEAN / Dopamine release, individual animals: 0.3 mg/kg I.P.; for Dopamine release, MEAN: n = 8; for Dopamine release, individual animals: one column per animal R#11,12,18,23,29,30,17,24
Experimental: The aim of the study was to evaluate, using microdialysis, the effects of an intraperitoneal (I.P.) administration in rats of three different doses of SON-117 on dopamine and its metabolites, serotonin and its metabolite (5-HIAA), and norepinephrine levels in prefrontal cortex.
Thirty-two adult male Wistar rats were used for the whole study (4 groups of eight animals planned for the study, Table 1).
Surgery was performed on rats weighing about 300 g at the beginning of the experiments. Rats were anaesthetized with Ketamine (50 mg/kg) & Xylazine (15 mg/kg) by intramuscular administration. The animals were placed in a stereotaxic apparatus in the flat-skull position at a constant setting of −3.3 mm between ear bars and the incisor bar. The animals were treated with a local anesthesic (xylocaine 1%, Astra Zeneca) and an analgesic (Temgesic, from Schering Plough, 0.05 mg/kg, s.c.). A rostrocaudal midline incision was made with a lancet to expose the dorsal skull surface. The “stereotaxic zero” was defined by the Bregma in accordance with Paxinos and Watson's atlas (1986). A hole was drilled in the skull with a drill and the meninges were pierced with a sterile needle to implant a CMA12 guide cannula which later received the dialysis probe.
Coordinates used for implanting guide cannula in prefrontal cortex from Bregma were anteroposterior 3.7 mm, mediolateral 0.8 mm, and dorsoventral −2 mm (top of the probe was at −5 mm). The guide cannula was fixed to the skull with two stainless steel screws (1.88 mm outside diameter) anchored. An application of dental cement was added. A plastic collar allowed each animal to be tethered to a Swivel assembly of the CMA 120 awake animal system. Following surgery, rats were kept in individual cages and allowed to recover for a minimum of 3-5 days before the experimentation. The rats were handled and put in plastic bowl for 10 min at least every day to habituate the animals to their new environment for the dialysis. An I.P. administration with saline was also performed every day.
Dialysis probes (CMA12/3 mm, membrane, 20 kD cut-off, Carnegie Medicine, Stockholm, Sweden), were carefully washed before inserting into the guide cannula. The wash was performed with the artificial cerebrospinal fluid (aCSF) medium (NaCl 147 mM, KCl 2.7 mM, CaCl2 1.2 mM, MgCl2 0.85 mM) at room temperature. The dialysis system was then equilibrated at 20° C. at a perfusion rate of 1 μl/min with a Carnegie pump (CMA100). All catheters (FEP tubing, internal volume of 1.2 μl/10 cm, and tubing adaptors) used for microdialysis were treated in the same conditions.
The probes duly prepared were inserted into the guide cannula and the CMA120 Swivel assembly secured to the animal using a plastic collar. Flow through the dialysis probe with aCSF was maintained at a rate of 1 μl/min during the whole experimentation. The first four fractions (corresponding to 2 hours) were discarded to avoid the effects of parenchymal disturbance and to ensure that an approximate steady-state level was reached. Fractions were then collected over a period of 8.5 h during which time the animals remained quiet. The dialysates were automatically collected with an autosampler (microfraction collector CMA 140, Carnegie Medicin) and stored at −80° C. until analysis. […] Perfusion was then maintained for 7 hours with aCSF. The dialysates (30 μl) were collected into 300 μl vials, transferred into dry ice and then kept frozen (−80° C.) until analysis. Frozen samples were shipped to a partner for analysis. At the end of the microdialysis study, a PBS with colored ink was perfused through the probe in order to visualize the dialyzed area.
Catecholamine assay: Concentrations of dopamine, DOPAC, HVA, 5-HIAA, 5-HT, and norepinephrin were determined for each sample by HPLC coupled with electrochemical detection.

Cc1nnc(-c2cc3c(OC[C@@H](O)CN4CCC(c5ccc(Cl)c(Cl)c5)CC4)cccc3o2)o1 [SON-117, (S)-1-(4-(3,4-dichlorophenyl)piperidino)-3-(2-(5-methyl-1,3,4-oxadiazol-2-yl)benzo(b)furan-4-yloxy)-2-propanol hydrochloride]
DOPAMINE (% of respective basal), individual animal (T30-T1 h): 78.42 % of respective basal and 144.00 % of respective basal and 128.77 % of respective basal and 71.43 % of respective basal and 151.01 % of respective basal and 47.86 % of respective basal and 101.52 % of respective basal | DOPAMINE (% of respective basal), individual animal (T1 h 30-T2 h): 36.00 % of respective basal and 142.72 % of respective basal and 334.21 % of respective basal and 140.61 % of respective basal and 189.68 % of respective basal and 109.22 % of respective basal and 110.24 % of respective basal | DOPAMINE (% of respective basal), individual animal (T1 h-T1 h 30): 48.68 % of respective basal and 33.57 % of respective basal and 218.55 % of respective basal and 176.05 % of respective basal and 99.52 % of respective basal and 198.57 % of respective basal and 106.01 % of respective basal and 103.54 % of respective basal | DOPAMINE (% of respective basal), individual animal (T2 h 30-T3 h): 23.71 % of respective basal and 100.08 % of respective basal and 315.3 % of respective basal and 95.2 % of respective basal and 171.39 % of respective basal and 293.73 % of respective basal and 72.19 % of respective basal and 35.99 % of respective basal | DOPAMINE (% of respective basal), individual animal (T2 h-T2 h 30): 84.44 % of respective basal and 172.82 % of respective basal and 179.35 % of respective basal and 87.73 % of respective basal and 1288.95 % of respective basal and 305.56 % of respective basal and 131.13 % of respective basal and 45.72 % of respective basal | DOPAMINE (% of respective basal), individual animal (T3 h 30-T4 h): 23.36 % of respective basal and 145.75 % of respective basal and 464.25 % of respective basal and 43.13 % of respective basal and 194.11 % of respective basal and 295.73 % of respective basal and 45.38 % of respective basal and 34.94 % of respective basal | DOPAMINE (% of respective basal), individual animal (T3 h-T3 h 30): 40.16 % of respective basal and 117.963 % of respective basal and 93.88 % of respective basal and 47.74 % of respective basal and 225.34 % of respective basal and 586.07 % of respective basal and 48.38 % of respective basal and 40.61 % of respective basal | DOPAMINE (% of respective basal), individual animal (T4 h 30-T5 h): 196.31 % of respective basal and 152.43 % of respective basal and 409.91 % of respective basal and 45.90 % of respective basal and 293.48 % of respective basal and 662.65 % of respective basal and 73.568 % of respective basal and 92.51 % of respective basal | DOPAMINE (% of respective basal), individual animal (T4 h-T4 h 30): 91.54 % of respective basal and 75.24 % of respective basal and 423.55 % of respective basal and 28.53 % of respective basal and 308.40 % of respective basal and 676.86 % of respective basal and 63.428 % of respective basal and 58.94 % of respective basal | DOPAMINE (% of respective basal), individual animal (T5 h 30-T6 h): 107.62 % of respective basal and 109.11 % of respective basal and 218.37 % of respective basal and 42.54 % of respective basal and 135.41 % of respective basal and 709.30 % of respective basal and 42.94 % of respective basal and 140.37 % of respective basal | DOPAMINE (% of respective basal), individual animal (T5 h-T5 h 30): 110.75 % of respective basal and 148.81 % of respective basal and 228.76 % of respective basal and 47.98 % of respective basal and 200.12 % of respective basal and 601.17 % of respective basal and 21.81 % of respective basal and 112.11 % of respective basal | DOPAMINE (% of respective basal), individual animal (T6 h 30-T7 h): 78.29 % of respective basal and 188.44 % of respective basal and 933.712 % of respective basal and 63.21 % of respective basal and 1205.29 % of respective basal and 126.67 % of respective basal | DOPAMINE (% of respective basal), individual animal (T6 h-T6 h 30): 130.81 % of respective basal and 238.5 % of respective basal and 88.84 % of respective basal and 62.29 % of respective basal and 146.28 % of respective basal and 882.60 % of respective basal and 95.56 % of respective basal and 166.52 % of respective basal | Dopamine release, MEAN (T0-T30 min): 128.24 % of respective basal | Dopamine release, MEAN (T30-T1 h): 131.35 % of respective basal | Dopamine release, individual animals (T30-T1 h): 103.18 % of respective basal and 54.05 % of respective basal and 146.65 % of respective basal and 93.66 % of respective basal and 168.96 % of respective basal and 281.64 % of respective basal and 59.20 % of respective basal and 143.48 % of respective basal | Dopamine release, MEAN (T1 h 30-T2 h): 90.06 % of respective basal | Dopamine release, individual animals (T1 h 30-T2 h): 91.90 % of respective basal and 29.89 % of respective basal and 33.64 % of respective basal and 64.84 % of respective basal and 106.30 % of respective basal and 119.82 % of respective basal and 81.21 % of respective basal and 192.86 % of respective basal | Dopamine release, MEAN (T1 h-T1 h 30): 94.40 % of respective basal | Dopamine release, individual animals (T1 h-T1 h 30): 50.19 % of respective basal and 44.28 % of respective basal and 51.46 % of respective basal and 70.10 % of respective basal and 123.34 % of respective basal and 256.96 % of respective basal and 56.09 % of respective basal and 102.79 % of respective basal | Dopamine release, MEAN (T2 h 30-T3 h): 95.29 % of respective basal | Dopamine release, individual animals (T2 h 30-T3 h): 53.62 % of respective basal and 111.85 % of respective basal and 131.64 % of respective basal and 82.81 % of respective basal and 130.53 % of respective basal and 91.04 % of respective basal and 42.56 % of respective basal and 118.24 % of respective basal | Dopamine release, MEAN (T2 h-T2 h 30): 112.22 % of respective basal | Dopamine release, individual animals (T2 h-T2 h 30): 78.18 % of respective basal and 201.28 % of respective basal and 102.58 % of respective basal and 57.76 % of respective basal and 140.27 % of respective basal and 171.47 % of respective basal and 131.71 % of respective basal and 14.48 % of respective basal | Dopamine release, MEAN (T3 h 30-T4 h): 131.87 % of respective basal | Dopamine release, individual animals (T3 h 30-T4 h): 348.64 % of respective basal and 164.63 % of respective basal and 39.78 % of respective basal and 87.76 % of respective basal and 122.97 % of respective basal and 30.76 % of respective basal and 128.55 % of respective basal | Dopamine release, MEAN (T3 h-T3 h 30): 133.65 % of respective basal | Dopamine release, individual animals (T3 h-T3 h 30): 263.92 % of respective basal and 284.14 % of respective basal and 32.71 % of respective basal and 88.53 % of respective basal and 186.05 % of respective basal and 14.29 % of respective basal and 65.93 % of respective basal | Dopamine release, MEAN (T4 h 30-T5 h): 99.61 % of respective basal | Dopamine release, individual animals (T4 h 30-T5 h): 204.04 % of respective basal and 138.52 % of respective basal and 77.42 % of respective basal and 28.77 % of respective basal and 97.45 % of respective basal and 26.06 % of respective basal and 62.98 % of respective basal and 161.60 % of respective basal | Dopamine release, MEAN (T4 h-T4 h 30): 126.41 % of respective basal | Dopamine release, individual animals (T4 h-T4 h 30): 99.34 % of respective basal and 210.06 % of respective basal and 195.26 % of respective basal and 40.10 % of respective basal and 119.18 % of respective basal and 52.10 % of respective basal and 159.91 % of respective basal and 135.30 % of respective basal | Dopamine release, MEAN (T5 h 30-T6 h): 263.98 % of respective basal

Reference: US20250109127A1, “METHODS OF USE OF PHENOXYPROPYLAMINE COMPOUNDS TO TREAT DEPRESSION” (Minerva Neurosciences, Inc., priority 2013, published 2025)
